Laboratory results published in the NIST ThermoML archive (doi:10.1016/j.jct.2014.04.016).
Values joined by “and” are separate entries in the source; they are usually repeats but may differ in a detail not shown here. Identical values can stand only once.

Assay: xn = mol fraction of the nth substance listed
Details: 100 kPa; for electrical conductivity: Alternating current cell with electrodes; for viscosity: Concentric cylinders viscometry; for mass density: Vibrating tube method

CCCCCCCCOS(=O)(=O)[O-].CCn1cc[n+](C)c1 [1-ethyl-3-methylimidazolium octyl sulfate] + O
Details	electrical conductivity	mass density	viscosity
278.1 K, Glass, x1 = 0.1197	–	–	591.8 mPa·s
278.1 K, Glass, x1 = 0.3555	0.188 S/m	–	2561 mPa·s and 2061 mPa·s
278.1 K, Liquid, x1 = 0.0401	1.32 S/m and 1.31 S/m	–	–
278.1 K, Liquid, x1 = 0.0586	1.24 S/m	–	–
278.1 K, Liquid, x1 = 0.1197	–	1079 kg/m3	–
278.1 K, Liquid, x1 = 0.1402	–	1080.9 kg/m3	–
278.1 K, Liquid, x1 = 0.3555	–	1099.7 kg/m3 and 1099.8 kg/m3	–
278.1 K, Liquid, x1 = 0.4108	0.144 S/m	1101.5 kg/m3	394.6 mPa·s
278.1 K, Liquid, x1 = 0.4688	0.097 S/m	–	–
278.1 K, Liquid, x1 = 0.5001	0.089 S/m	–	–
278.6 K, Glass, x1 = 0.3555	–	–	1160 mPa·s
278.6 K, Liquid, x1 = 0.3555	–	1099.4 kg/m3	–
279.1 K, Glass, x1 = 0.3555	0.198 S/m	–	633.2 mPa·s
279.1 K, Liquid, x1 = 0.0803	1.1 S/m	–	–
279.1 K, Liquid, x1 = 0.1197	0.866 S/m	–	–
279.1 K, Liquid, x1 = 0.3555	–	1098.8 kg/m3	–
280.1 K, Glass, x1 = 0.1402	0.788 S/m	–	–
280.1 K, Liquid, x1 = 0.3555	0.206 S/m and 0.205 S/m	1098.3 kg/m3	307.6 mPa·s
280.1 K, Liquid, x1 = 0.4688	0.109 S/m	–	–
280.6 K, Liquid, x1 = 0.3555	–	1097.9 kg/m3	297.5 mPa·s
281.1 K, Glass, x1 = 0.1402	0.815 S/m and 0.816 S/m	–	–
281.1 K, Glass, x1 = 0.1605	0.737 S/m	–	–
281.1 K, Liquid, x1 = 0.0803	1.22 S/m	–	–
281.1 K, Liquid, x1 = 0.1197	0.927 S/m	–	–
281.1 K, Liquid, x1 = 0.3555	0.215 S/m and 0.214 S/m	1097.6 kg/m3	287.4 mPa·s
281.1 K, Liquid, x1 = 0.4108	0.168 S/m	–	–
282.1 K, Glass, x1 = 0.1402	0.848 S/m and 0.847 S/m	–	–
282.1 K, Glass, x1 = 0.1605	0.766 S/m	–	–
282.1 K, Glass, x1 = 0.3076	–	–	12190 mPa·s
282.1 K, Liquid, x1 = 0.3076	–	1094.6 kg/m3	–
282.1 K, Liquid, x1 = 0.3555	–	1096.9 kg/m3	268.8 mPa·s
282.6 K, Glass, x1 = 0.3076	–	–	7608 mPa·s
282.6 K, Liquid, x1 = 0.3076	–	1094.3 kg/m3	–
283.1 K, Glass, x1 = 0.1402	0.873 S/m and 0.874 S/m	–	11410 mPa·s
283.1 K, Glass, x1 = 0.1605	0.793 S/m and 0.791 S/m	–	–
283.1 K, Glass, x1 = 0.2119	0.566 S/m and 0.563 S/m	–	–
283.1 K, Glass, x1 = 0.2632	0.393 S/m	–	–
283.1 K, Glass, x1 = 0.3076	–	–	2873 mPa·s
283.1 K, Liquid, x1 = 0.0401	1.48 S/m	–	–
283.1 K, Liquid, x1 = 0.0586	1.46 S/m and 1.45 S/m	–	–
283.1 K, Liquid, x1 = 0.0803	1.29 S/m	–	–
283.1 K, Liquid, x1 = 0.1197	0.987 S/m	1075.7 kg/m3	105.5 mPa·s
283.1 K, Liquid, x1 = 0.1402	–	1078.9 kg/m3	–
283.1 K, Liquid, x1 = 0.3076	–	1094.1 kg/m3	–
283.1 K, Liquid, x1 = 0.3555	0.234 S/m and 0.236 S/m	1096.1 kg/m3 and 1096.2 kg/m3	251.8 mPa·s and 251.7 mPa·s
283.1 K, Liquid, x1 = 0.4108	0.189 S/m	1098 kg/m3	282.2 mPa·s
283.1 K, Liquid, x1 = 0.4688	0.128 S/m and 0.124 S/m	–	–
283.1 K, Liquid, x1 = 0.5001	0.117 S/m	–	–
283.6 K, Glass, x1 = 0.3076	–	–	1129 mPa·s
283.6 K, Liquid, x1 = 0.3076	–	1093.8 kg/m3	–
284.1 K, Glass, x1 = 0.1605	0.819 S/m	–	–
284.1 K, Glass, x1 = 0.2632	0.409 S/m	–	–
284.1 K, Glass, x1 = 0.3076	0.335 S/m	–	560.6 mPa·s
284.1 K, Liquid, x1 = 0.1402	0.908 S/m and 0.907 S/m	–	–
284.1 K, Liquid, x1 = 0.3076	–	1093.6 kg/m3	–
285.1 K, Glass, x1 = 0.1402	–	–	6220 mPa·s
285.1 K, Glass, x1 = 0.1605	0.847 S/m and 0.848 S/m	–	–
285.1 K, Glass, x1 = 0.2632	0.431 S/m	–	–
285.1 K, Glass, x1 = 0.3076	0.349 S/m	–	–
285.1 K, Liquid, x1 = 0.0803	1.37 S/m	–	–
285.1 K, Liquid, x1 = 0.1197	1.06 S/m	–	–
285.1 K, Liquid, x1 = 0.1402	0.934 S/m and 0.936 S/m	1077.9 kg/m3	–
285.1 K, Liquid, x1 = 0.3076	–	1092.7 kg/m3	191.9 mPa·s
285.1 K, Liquid, x1 = 0.3555	0.258 S/m and 0.257 S/m	–	–
285.1 K, Liquid, x1 = 0.4108	0.209 S/m	–	–
285.1 K, Liquid, x1 = 0.4688	0.142 S/m	–	–
285.6 K, Liquid, x1 = 0.3076	–	1092.4 kg/m3	186 mPa·s
286.1 K, Glass, x1 = 0.1402	–	–	4375 mPa·s
286.1 K, Glass, x1 = 0.1605	0.875 S/m and 0.876 S/m	–	–
286.1 K, Glass, x1 = 0.2632	0.449 S/m and 0.445 S/m	–	–
286.1 K, Glass, x1 = 0.3076	0.363 S/m and 0.362 S/m	–	–
286.1 K, Liquid, x1 = 0.1402	0.965 S/m and 0.967 S/m	1077.3 kg/m3	–
286.1 K, Liquid, x1 = 0.3076	–	1092 kg/m3	180.2 mPa·s
286.6 K, Glass, x1 = 0.2632	0.455 S/m	–	–
286.6 K, Liquid, x1 = 0.2632	–	1088.8 kg/m3	–
286.6 K, Liquid, x1 = 0.3076	–	1091.7 kg/m3	174.6 mPa·s
287.1 K, Glass, x1 = 0.1402	–	–	2587 mPa·s
287.1 K, Glass, x1 = 0.1605	0.904 S/m	–	–
287.1 K, Glass, x1 = 0.1766	0.817 S/m	–	–
287.1 K, Glass, x1 = 0.2632	0.463 S/m	–	14710 mPa·s
287.1 K, Liquid, x1 = 0.1197	1.13 S/m	–	–
287.1 K, Liquid, x1 = 0.1402	0.996 S/m and 0.997 S/m	–	–
287.1 K, Liquid, x1 = 0.1605	0.906 S/m	–	–
